Assay results reported in ChEMBL document CHEMBL1201862, “PubChem BioAssay data set” (2004).
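Test compounds were applied to cells in 96-well plates for 48 hours at 5 doses. Abbreviation: GI50, concentration required for 50% inhibition of growth.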 Activity calls are given as the source filed them. Rule as the data show it: active = GI50 up to about 1.1 µM and inactive = higher.

Key:
Test in all cases: inhibition of tumour cell growth, NCI panel, 48 h
COLO 205 = system: COLO 205
Hs-578T = system: Hs-578T
KM12 = system: KM12
Malme-3M = system: Malme-3M
MDA-MB-435 = system: MDA-MB-435
DU-145 = system: DU-145
HT-29 = system: HT-29
NCI-H23 = system: NCI-H23
CAKI-1 = system: CAKI-1
OVCAR-5 = system: OVCAR-5
HCT-15 = system: HCT-15
OVCAR-3 = system: OVCAR-3
SW-620 = system: SW-620
T47D = system: T47D
RXF 393 = system: RXF 393
OVCAR-4 = system: OVCAR-4
SK-OV-3 = system: SK-OV-3
SR = system: SR
786-0 = system: 786-0
HL-60 = system: HL-60
RPMI-8226 = system: RPMI-8226
CCRF-CEM = system: CCRF-CEM
NCI/ADR-RES = system: NCI/ADR-RES
SF-295 = system: SF-295
SF-539 = system: SF-539
MDA-MB-231 = system: MDA-MB-231
EKVX = system: EKVX
PC-3 = system: PC-3
HOP-62 = system: HOP-62
HCT-116 = system: HCT-116
NCI-H522 = system: NCI-H522
M14 = system: M14
A549 = system: A549
SK-MEL-28 = system: SK-MEL-28
LOX IMVI = system: LOX IMVI
UACC-257 = system: UACC-257
NCI-H460 = system: NCI-H460
HOP-92 = system: HOP-92
SNB-19 = system: SNB-19
K562 = system: K562
IGROV-1 = system: IGROV-1
SK-MEL-5 = system: SK-MEL-5
SK-MEL-2 = system: SK-MEL-2
HCC 2998 = system: HCC 2998
BT-549 = system: BT-549
MOLT-4 = system: MOLT-4
SNB-75 = system: SNB-75
SF-268 = system: SF-268
MDA-N = system: MDA-N
NCI-H226 = system: NCI-H226
SN12C = system: SN12C
MCF7 = system: MCF7
U-251 = system: U-251
UACC-62 = system: UACC-62
ACHN = system: ACHN
UO-31 = system: UO-31
A498 = system: A498
TK-10 = system: TK-10
OVCAR-8 = system: OVCAR-8

Question: For `Nc1ccc2c3[nH]c4cc(N)ccc4cc-3nc2c1`, which GI50 (COLO 205) is on record?
Answer: 180 nM (active)

Question: What about the GI50 (Hs-578T) of the same compound?
Answer: 110 nM (active)

Question: What about the GI50 (KM12) of the same compound?
Answer: 167 nM (active)

Question: And the GI50 (Malme-3M)?
Answer: 2660 nM (inactive)

Question: What about the GI50 (MDA-MB-435) of the same compound?
Answer: 136 nM (active)

Question: What about the GI50 (DU-145) of the same compound?
Answer: 318 nM (active)

Question: What about the GI50 (HT-29) of the same compound?
Answer: 145 nM (active)

Question: And the GI50 (NCI-H23)?
Answer: 202 nM (active)

Question: What about the GI50 (CAKI-1) of the same compound?
Answer: 203 nM (active)

Question: What about the GI50 (OVCAR-5) of the same compound?
Answer: 291 nM (active)

Question: What about the GI50 (HCT-15) of the same compound?
Answer: 266 nM

Question: And the GI50 (OVCAR-3)?
Answer: 349 nM (active)

Question: What about the GI50 (SW-620) of the same compound?
Answer: 60.3 nM (active)

Question: And the GI50 (T47D)?
Answer: 284 nM (active)

Question: And the GI50 (RXF 393)?
Answer: 320 nM (active)

Question: What about the GI50 (OVCAR-4) of the same compound?
Answer: 283 nM (active)

Question: And the GI50 (SK-OV-3)?
Answer: 314 nM (active)

Question: What about the GI50 (SR) of the same compound?
Answer: 53.5 nM (active)

Question: And the GI50 (786-0)?
Answer: 121 nM (active)

Question: What about the GI50 (HL-60) of the same compound?
Answer: 273 nM (active)

Question: And the GI50 (RPMI-8226)?
Answer: 414 nM (active)

Question: And the GI50 (CCRF-CEM)?
Answer: 158 nM (active)

Question: What about the GI50 (NCI/ADR-RES) of the same compound?
Answer: 243 nM (active)

Question: What about the GI50 (SF-295) of the same compound?
Answer: 265 nM (active)

Question: What about the GI50 (SF-539) of the same compound?
Answer: 231 nM (active)

Question: What about the GI50 (MDA-MB-231) of the same compound?
Answer: 455 nM (active)

Question: And the GI50 (EKVX)?
Answer: 267 nM (active)

Question: And the GI50 (PC-3)?
Answer: 224 nM (active)

Question: And the GI50 (HOP-62)?
Answer: 117 nM (active)

Question: What about the GI50 (HCT-116) of the same compound?
Answer: 58.2 nM (active)

Question: And the GI50 (NCI-H522)?
Answer: 22600 nM (inactive)

Question: What about the GI50 (M14) of the same compound?
Answer: 344 nM (active)

Question: What about the GI50 (A549) of the same compound?
Answer: 286 nM (active)

Question: What about the GI50 (SK-MEL-28) of the same compound?
Answer: 74.6 nM (active)

Question: And the GI50 (LOX IMVI)?
Answer: 199 nM (active)

Question: And the GI50 (UACC-257)?
Answer: 172 nM (active)

Question: What about the GI50 (NCI-H460) of the same compound?
Answer: 77.5 nM (active)

Question: And the GI50 (HOP-92)?
Answer: 42.2 nM (active)

Question: And the GI50 (SNB-19)?
Answer: 209 nM (active)

Question: What about the GI50 (K562) of the same compound?
Answer: 5070 nM (inactive)

Question: What about the GI50 (IGROV-1) of the same compound?
Answer: 2160 nM (inactive)

Question: What about the GI50 (SK-MEL-5) of the same compound?
Answer: 237 nM (active)

Question: And the GI50 (SK-MEL-2)?
Answer: 413 nM (active)

Question: And the GI50 (HCC 2998)?
Answer: 90 nM (active)

Question: What about the GI50 (BT-549) of the same compound?
Answer: 984 nM (active)

Question: What about the GI50 (MOLT-4) of the same compound?
Answer: 78.9 nM (active)

Question: What about the GI50 (SNB-75) of the same compound?
Answer: 120 nM (active)

Question: What about the GI50 (SF-268) of the same compound?
Answer: 232 nM (active)

Question: And the GI50 (MDA-N)?
Answer: 194 nM (active)

Question: And the GI50 (NCI-H226)?
Answer: 174 nM (active)

Question: What about the GI50 (SN12C) of the same compound?
Answer: 138 nM (active)

Question: And the GI50 (MCF7)?
Answer: 69 nM (active)

Question: And the GI50 (U-251)?
Answer: 156 nM (active)

Question: What about the GI50 (UACC-62) of the same compound?
Answer: 194 nM (active)

Question: What about the GI50 (ACHN) of the same compound?
Answer: 23.6 nM (active)

Question: What about the GI50 (UO-31) of the same compound?
Answer: 92.5 nM (active)

Question: And the GI50 (A498)?
Answer: 138 nM (active)

Question: And the GI50 (TK-10)?
Answer: 2090 nM (inactive)

Question: And the GI50 (OVCAR-8)?
Answer: 151 nM (active)

Question: With `COc1ccc(OC)c(C[P+](c2ccccc2)(c2ccccc2)c2ccccc2)c1` as the compound, how does the GI50 (COLO 205) read?
Answer: 1100 nM (active)

Question: What about the GI50 (Hs-578T) of the same compound?
Answer: 2010 nM (inactive)

Question: What about the GI50 (KM12) of the same compound?
Answer: 1110 nM (active)

Question: And the GI50 (Malme-3M)?
Answer: 5560 nM (inactive)

Question: And the GI50 (MDA-MB-435)?
Answer: 984 nM (active)

Question: And the GI50 (DU-145)?
Answer: 3270 nM (inactive)

Question: And the GI50 (HT-29)?
Answer: 450 nM (active)

Question: What about the GI50 (NCI-H23) of the same compound?
Answer: 2100 nM (inactive)

Question: And the GI50 (CAKI-1)?
Answer: 23400 nM (inactive)

Question: What about the GI50 (OVCAR-5) of the same compound?
Answer: 5270 nM (inactive)

Question: And the GI50 (HCT-15)?
Answer: 18500 nM

Question: What about the GI50 (OVCAR-3) of the same compound?
Answer: 2540 nM (inactive)

Question: What about the GI50 (SW-620) of the same compound?
Answer: 2610 nM (inactive)

Question: And the GI50 (T47D)?
Answer: 2870 nM (inactive)

Question: What about the GI50 (RXF 393) of the same compound?
Answer: 4680 nM (inactive)

Question: And the GI50 (OVCAR-4)?
Answer: 4010 nM (inactive)

Question: And the GI50 (SK-OV-3)?
Answer: 2580 nM (inactive)

Question: And the GI50 (SR)?
Answer: 601 nM (active)

Question: And the GI50 (786-0)?
Answer: 3380 nM (inactive)

Question: What about the GI50 (HL-60) of the same compound?
Answer: 434 nM (active)

Question: And the GI50 (RPMI-8226)?
Answer: 330 nM (active)

Question: What about the GI50 (CCRF-CEM) of the same compound?
Answer: 2560 nM (inactive)

Question: What about the GI50 (NCI/ADR-RES) of the same compound?
Answer: > 100000 nM (inactive)

Question: What about the GI50 (SF-295) of the same compound?
Answer: 3960 nM (inactive)

Question: And the GI50 (SF-539)?
Answer: 3820 nM (inactive)

Question: And the GI50 (MDA-MB-231)?
Answer: 3270 nM (inactive)

Question: And the GI50 (EKVX)?
Answer: 10600 nM (inactive)

Question: And the GI50 (PC-3)?
Answer: 1570 nM (inactive)

Question: What about the GI50 (HOP-62) of the same compound?
Answer: 3770 nM (inactive)

Question: What about the GI50 (HCT-116) of the same compound?
Answer: 1020 nM (active)

Question: What about the GI50 (NCI-H522) of the same compound?
Answer: 9230 nM (inactive)

Question: And the GI50 (M14)?
Answer: 2420 nM (inactive)

Question: What about the GI50 (A549) of the same compound?
Answer: 3560 nM (inactive)

Question: What about the GI50 (SK-MEL-28) of the same compound?
Answer: 3260 nM (inactive)

Question: And the GI50 (LOX IMVI)?
Answer: 968 nM (active)

Question: What about the GI50 (UACC-257) of the same compound?
Answer: 656 nM (active)

Question: What about the GI50 (NCI-H460) of the same compound?
Answer: 3840 nM (inactive)

Question: And the GI50 (HOP-92)?
Answer: 792 nM (active)

Question: And the GI50 (SNB-19)?
Answer: 2670 nM (inactive)

Question: What about the GI50 (K562) of the same compound?
Answer: 445 nM (active)

Question: And the GI50 (IGROV-1)?
Answer: 971 nM (active)

Question: And the GI50 (SK-MEL-5)?
Answer: 991 nM (active)

Question: What about the GI50 (HCC 2998) of the same compound?
Answer: 3540 nM (inactive)

Question: And the GI50 (BT-549)?
Answer: 2060 nM (inactive)

Question: What about the GI50 (MOLT-4) of the same compound?
Answer: 3420 nM (inactive)

Question: And the GI50 (SNB-75)?
Answer: 3710 nM (inactive)

Question: And the GI50 (SF-268)?
Answer: 3720 nM (inactive)

Question: And the GI50 (MDA-N)?
Answer: 753 nM (active)

Question: What about the GI50 (NCI-H226) of the same compound?
Answer: 4840 nM (inactive)

Question: And the GI50 (SN12C)?
Answer: 5890 nM (inactive)

Question: What about the GI50 (MCF7) of the same compound?
Answer: 2110 nM (inactive)

Question: And the GI50 (UACC-62)?
Answer: 971 nM (active)

Question: What about the GI50 (ACHN) of the same compound?
Answer: 4800 nM (inactive)

Question: What about the GI50 (UO-31) of the same compound?
Answer: 21600 nM (inactive)

Question: And the GI50 (A498)?
Answer: 4360 nM (inactive)

Question: And the GI50 (TK-10)?
Answer: 2700 nM (inactive)

Question: What about the GI50 (OVCAR-8) of the same compound?
Answer: 2080 nM (inactive)
